Laboratory results taken from PMC3280264 (PLoS ONE, 2012).

Target: T1, Human SGLT3 (Homo sapiens, UniProt Q9NY91)
T1 construct: expressed in transfected cells; host or cells: oocytes (from Nasco), injected with mRNA
T1 sequence (Q9NY91 1-659): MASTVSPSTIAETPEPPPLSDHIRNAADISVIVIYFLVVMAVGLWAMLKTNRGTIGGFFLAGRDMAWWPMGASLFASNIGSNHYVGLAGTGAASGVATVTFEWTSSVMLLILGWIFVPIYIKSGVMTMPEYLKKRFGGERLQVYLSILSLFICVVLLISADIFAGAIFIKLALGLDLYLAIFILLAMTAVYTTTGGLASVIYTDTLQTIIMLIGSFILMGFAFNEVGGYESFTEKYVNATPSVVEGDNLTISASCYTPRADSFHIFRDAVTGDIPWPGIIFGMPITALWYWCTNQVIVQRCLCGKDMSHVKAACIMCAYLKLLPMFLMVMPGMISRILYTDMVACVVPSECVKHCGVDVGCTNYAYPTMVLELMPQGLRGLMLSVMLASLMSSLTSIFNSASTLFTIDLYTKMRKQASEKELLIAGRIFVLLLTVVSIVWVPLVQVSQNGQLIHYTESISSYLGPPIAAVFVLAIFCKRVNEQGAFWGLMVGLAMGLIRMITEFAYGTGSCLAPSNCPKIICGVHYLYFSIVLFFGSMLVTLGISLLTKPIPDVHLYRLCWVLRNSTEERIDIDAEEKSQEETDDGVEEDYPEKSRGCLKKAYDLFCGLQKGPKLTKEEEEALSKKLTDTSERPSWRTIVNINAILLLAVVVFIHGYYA
Assay: Two-electrode voltage clamp recording of oocytes expressing human SGLT3 (DNJ-induced currents)
Assay type: cell-based
Conditions: 3 mM
Procedure: Oocytes were obtained from Nasco (Fort Atkinson, Wisconsin, USA). Stage V–VI oocytes were injected with 50 nl of either human SGLT3 mRNA (at 1 ng/nl) or distilled water (control) and incubated at 18°C in a calcium-free solution (92 mM NaCl, 2 mM KCl, 1 mM MgCl2, 5 mM HEPES, 0.05 mg/ml gentamicin at pH 7.5) for 4–6 days before recording. The extracellular recording solution contained 92 mM NaCl, 2 mM KCl, 1.8 mM CaCl2, 1 mM MgCl2, and 5 mM HEPES at pH 7.5. Injected oocytes were impaled with 2 microelectrodes filled with 3 M KCl (resistance of ∼0.5–3 MΩ) and voltage clamped to −120 mV, at which continuous recordings were made (filtered at 5 kHz and sampled at 625 Hz). To establish the baseline in the absence of agonist, oocytes were first perfused for 85 seconds with a control buffer (92 mM NaCl, 2 mM KCl, 1.8 mM CaCl2, 1 mM MgCl2, 5 mM HEPES at pH 7.5). […] Finally, phlorizin (3 mM) was applied in the presence of 50 µM DNJ for 160 seconds. All experiments were performed at 22°C. Currents in the presence of 50 µM DNJ were subtracted from leak currents (currents in control buffer alone) to obtain DNJ-induced currents (IDNJ). Effects of compounds were calculated as: % Inhibition = 100×(IDNJ−Icmpd)/IDNJ, where Icmpd is the DNJ-induced and leak-subtracted current in the presence of a compound or DMSO. Due to lack of effect at the highest dose tested, a dose-response relationship was not examined.

- inhibition at 3000 µM (SGLT3-injected oocytes, 50 µM DNJ, n = 14, P<0.05): 73.5 ± 4.2%
- effect on currents in sham-injected oocytes (sham (water)-injected oocytes, in the presence of 50 µM DNJ): did not affect currents
Structure (SMILES): O=C(CCc1ccc(O)cc1)c1c(O)cc(O)cc1O[C@@H]1O[C@H](CO)[C@@H](O)[C@H](O)[C@H]1O [phlorizin, reference compound]
